Bridges are numbered along the chain shown (N, C = ends). Primed or numbered codes have the meaning given here. [ ]: non-standard residue; d: D form. The star is where a group is joined. DOTA = O=C(O)CN1CCN(CC(=O)O)CCN(CC(=O)*)CCN(CC(=O)O)CC1; Arg(NO2) = N=C(NCCC[C@H](N)C(=O)O)N[N+](=O)[O-]; Biotin = O=C1N[C@H]2[C@H](CS[C@H]2CCCCC(=O)*)N1; Lys(Me3) = C[N+](C)(C)CCCC[C@H](N)C(=O)O; Lys(Me2) = CN(C)CCCC[C@H](N)C(=O)O; Cit = NC(=O)NCCC[C@H](N)C(=O)O; PEG4 = NCCOCCOCCOCCOCCC(=O)O; PEG4″ = 4(ethylene glycol); PEG4′ = not defined here

Test system in the first data set: not listed separately
Briefly: in vivo. As to conditions: Sprague Dawley, rat, iv. As for the experimental part:
To begin, double jugular vein-cannulated Sprague Dawley rats were dosed with bolus intravenous injections of miniproteins (0.03-0.3 mg/kg) and FITC-sinistrin. Nine blood collection timepoints were taken from 0-2 h, processed to plasma with K2 EDTA, and were frozen for subsequent bioanalysis. Plasma miniprotein concentrations were measured by LC-MS/MS. To control for inter-animal renal clearance differences, and to compare with glomerular filtration rate (GFR), the miniprotein was co-formulated with a molecular marker of GFR, FITC-sinistrin (FS) (Pill et al., 2005). Plasma FITC-sinistrin was measured fluorometrically. All unknown sample measurements were interpolated against known authentic standards spiked into normal rat plasma to calculate concentration. Finally, non-compartmental analysis was performed to estimate plasma pharmacokinetic parameters.
For “{DOTA-PEG4}-CEYDEEFFTALARLRGGDICQYIQAKFQYLPGQCIEEILDNLGCS-OH (disulfide 1-34, 20-44) [Compound C242]”, the half-life came out at 29.7 min.

Regarding `CC[C@H](C)[C@@H]1NC(=O)[C@H](Cc2ccc(O)cc2)NC(=O)[C@H](CCC(=O)O)NC(=O)[C@@H]2CSSC[C@@H](C(=O)N[C@@H](CO)C(=O)O)NC(=O)CNC(=O)[C@H](CC(C)C)NC(=O)[C@H](CC(N)=O)NC(=O)[C@H](CC(=O)O)NC(=O)[C@H](CC(C)C)NC(=O)[C@H]([C@@H](C)CC)NC(=O)[C@H](CCC(=O)O)NC(=O)[C@H](CCC(=O)O)NC(=O)[C@H]([C@@H](C)CC)NC(=O)[C@H](CSSC[C@H](NC(=O)CCOCCOCCOCCOCCNC(=O)CN3CCN(CC(=O)O)CCN(CC(=O)O)CCN(CC(=O)O)CC3)C(=O)N[C@@H](CC(=O)O)C(=O)N[C@@H](Cc3ccc(O)cc3)C(=O)N[C@@H](CC(=O)O)C(=O)N[C@@H](CCC(=O)O)C(=O)N[C@@H](CCC(N)=O)C(=O)N[C@@H](Cc3ccccc3)C(=O)N[C@@H](Cc3ccccc3)C(=O)N[C@@H]([C@@H](C)O)C(=O)N[C@@H](C)C(=O)N[C@@H](CC(C)C)C(=O)N[C@@H](C)C(=O)N[C@@H](CCCNC(=N)N)C(=O)N[C@@H](CC(C)C)C(=O)N[C@@H](CCCNC(=N)N)C(=O)NCC(=O)N[C@@H](C)C(=O)N[C@@H](CC(=O)O)C(=O)N[C@@H]([C@@H](C)CC)C(=O)N2)NC(=O)[C@H](CCC(=O)O)NC(=O)CNC(=O)[C@@H]2CCCN2C(=O)[C@H](CC(C)C)NC(=O)[C@H](Cc2ccc(O)cc2)NC(=O)[C@H](CCC(N)=O)NC(=O)[C@H](Cc2ccccc2)NC(=O)[C@H](CO)NC(=O)[C@H](C)NC(=O)[C@H](CCC(N)=O)NC1=O` [Compound C246], the half-life worked out at 38 min.

`CC[C@H](C)[C@@H]1NC(=O)[C@H](Cc2ccc(O)cc2)NC(=O)[C@H](CCC(=O)O)NC(=O)[C@@H]2CSSC[C@@H](C(=O)N[C@@H](CO)C(=O)O)NC(=O)CNC(=O)[C@H](CC(C)C)NC(=O)[C@H](CC(N)=O)NC(=O)[C@H](CC(=O)O)NC(=O)[C@H](CC(C)C)NC(=O)[C@H]([C@@H](C)CC)NC(=O)[C@H](CCC(=O)O)NC(=O)[C@H](CCC(=O)O)NC(=O)[C@H]([C@@H](C)CC)NC(=O)[C@H](CSSC[C@H](NC(=O)CCOCCOCCOCCOCCNC(=O)CN3CCN(CC(=O)O)CCN(CC(=O)O)CCN(CC(=O)O)CC3)C(=O)N[C@@H](CC(=O)O)C(=O)N[C@@H](Cc3ccc(O)cc3)C(=O)N[C@@H](CC(=O)O)C(=O)N[C@@H](CCC(=O)O)C(=O)N[C@@H](CCC(N)=O)C(=O)N[C@@H](Cc3ccccc3)C(=O)N[C@@H](Cc3ccccc3)C(=O)N[C@@H]([C@@H](C)O)C(=O)N[C@@H](C)C(=O)N[C@@H](CC(C)C)C(=O)N[C@@H](CCCCN)C(=O)N[C@@H](CCCNC(=N)N)C(=O)N[C@@H](CC(C)C)C(=O)N[C@@H](CCCNC(=N)N)C(=O)NCC(=O)NCC(=O)N[C@@H](CC(=O)O)C(=O)N[C@@H]([C@@H](C)CC)C(=O)N2)NC(=O)[C@H](CC(C)C)NC(=O)CNC(=O)[C@@H]2CCCN2C(=O)[C@H](CC(C)C)NC(=O)[C@H](Cc2ccc(O)cc2)NC(=O)[C@H](CCC(N)=O)NC(=O)[C@H](Cc2ccccc2)NC(=O)[C@H](CO)NC(=O)[C@H](C)NC(=O)[C@H](CCC(N)=O)NC1=O` [Compound C240] yielded a half-life of 29.7 min.

Another data set concerns Opossum kidney proximal tubule cells. The experiment in a line: Proximal tubule epithelial cell uptake assay. Type of data set: cell-based. As to conditions: Table 10A; mean percent uptake in opossum kidney cells, 1 h at 37° C., relative to control miniprotein C306. Here is the method:
FIG. 8 is a bar graph of the percent uptake of exemplary miniproteins tested at 20 µM in a proximal tubule epithelial cell assay vs 20 μM control peptide set at 100%. […]
Opossum kidney proximal tubule cells were plated in the upper chamber of 24-well transwell plates containing 600 μL of growth media in the lower chamber and were incubated overnight at 37° C., in 5% CO2. The following day, the media was changed, and cells were incubated an additional 24 h with orbital shaking at 146 RPM. Next, cells were washed and treated in duplicates with biotinylated exemplary miniproteins pre-complexed with streptavidin-AF647 for 1 h at 37° C., and 5% C02 with continuous orbital shaking. Following incubation, cells were washed three times with 1×PBS and lysed with RIPA buffer containing protease and phosphatase inhibitor cocktail and a universal nuclease for 30 minutes. Uptake was measured on 100 μL of lysates using a fluorimeter. Mean % uptake values of control miniprotein C306 in the presence of exemplary miniproteins are provided in TABLE 10A and summarized in FIG. 8.
Uptake of engineered Nectin-4 miniproteins with further modified lysine residues (C298-C304, as described in Example 4B) was evaluated. Percent uptake of these exemplary Nectin-4-targeting miniproteins and C251 were determined against a control miniprotein, C306, using opossum kidney proximal tubule cells as described in Example 18A. Percent uptake of C298, which has an unmodified lysine (K) at amino acid position 26 (along the length of the miniprotein sequence. SEQ ID NO: 162), was 37% in the presence of […]. All other miniproteins having a modified lysine (modified with one or more small alkyl groups of monomethyl, dimethyl, trimethyl, or isopropyl group) had (i) kidney uptake similar to that of C251 and (ii) reduced uptake as compared to C298, which has an unmodified lysine at position 26.
As for “C281 ({Biotin-PEG4′}-CEYDEQFFTALARLRGGDICEYIQA[Cit]FQYLPGLCIEEILDNLGCS-OH; disulfide 1-34, 20-44) [Compound C281]”, the “% Uptake of C306 (Control)” value worked out at 0.006%.

As to “C282 ({Biotin-PEG4″}-CEYDEQFFTALARLRGGDICEYIQA[Arg(NO2)]FQYLPGLCIEEILDNLGCS-OH; disulfide 1-34, 20-44) [Compound C282]”, the “% Uptake of C306 (Control)” value was 2.14 (n = 1) %.

Take “C262: exemplary Nectin-4 miniprotein compound ({Biotin-PEG4″}-CEYDEQFFTALARLRGADICEYIQA[Lys(Me3)]FQYLPGLCIEEILDNLGCS-OH; disulfide 1-34, 20-44) [Compound C262]”: the “% Uptake of C306 (Control)” value was determined as 1.27%.

With “C257: exemplary Nectin-4 miniprotein compound ({Biotin-PEG4″}-CDYDEQFFTALKRLRGADICEYIQA[Lys(Me3)]FQYLPGECIEEILDNLGCS-OH; disulfide 1-34, 20-44) [Compound C257]”, the “% Uptake of C306 (Control)” value amounted to 7.99%.

Still in this data set, the particulars now being: Table 10B; opossum kidney proximal tubule cells, relative to control miniprotein C306; modified lysine miniproteins.
Turning to “{Biotin-PEG4}-CEYDEEFFTAL[Lys(Me2)]RLRGGDICQYIQA[Lys(Me3)]FQYLPALCIEEILDNLGCS-OH (disulfide 1-34, 20-44) [Compound C303]”, the “% Uptake of C306” value worked out at 3%.

As to `CC[C@H](C)[C@@H]1NC(=O)[C@H](Cc2ccc(O)cc2)NC(=O)[C@H](CCC(N)=O)NC(=O)[C@@H]2CSSC[C@@H](C(=O)N[C@@H](CO)C(=O)O)NC(=O)CNC(=O)[C@H](CC(C)C)NC(=O)[C@H](CC(N)=O)NC(=O)[C@H](CC(=O)O)NC(=O)[C@H](CC(C)C)NC(=O)[C@H]([C@@H](C)CC)NC(=O)[C@H](CCC(=O)O)NC(=O)[C@H](CCC(=O)O)NC(=O)[C@H]([C@@H](C)CC)NC(=O)[C@H](CSSC[C@H](NC(=O)CCOCCOCCOCCOCCNC(=O)CCCC[C@@H]3SC[C@@H]4NC(=O)N[C@@H]43)C(=O)N[C@@H](CCC(=O)O)C(=O)N[C@@H](Cc3ccc(O)cc3)C(=O)N[C@@H](CC(=O)O)C(=O)N[C@@H](CCC(=O)O)C(=O)N[C@@H](CCC(=O)O)C(=O)N[C@@H](Cc3ccccc3)C(=O)N[C@@H](Cc3ccccc3)C(=O)N[C@@H]([C@@H](C)O)C(=O)N[C@@H](C)C(=O)N[C@@H](CC(C)C)C(=O)N[C@@H](C)C(=O)N[C@@H](CCCNC(=N)N)C(=O)N[C@@H](CC(C)C)C(=O)N[C@@H](CCCNC(=N)N)C(=O)NCC(=O)NCC(=O)N[C@@H](CC(=O)O)C(=O)N[C@@H]([C@@H](C)CC)C(=O)N2)NC(=O)[C@H](CC(C)C)NC(=O)[C@H](C)NC(=O)[C@@H]2CCCN2C(=O)[C@H](CC(C)C)NC(=O)[C@H](Cc2ccc(O)cc2)NC(=O)[C@H](CCC(N)=O)NC(=O)[C@H](Cc2ccccc2)NC(=O)[C@H](CCCCNC(C)C)NC(=O)[C@H](C)NC(=O)[C@H](CCC(N)=O)NC1=O` [Compound C301], the “% Uptake of C306” value stood at 3%.

For `CC[C@H](C)[C@@H]1NC(=O)[C@H](Cc2ccc(O)cc2)NC(=O)[C@H](CCC(N)=O)NC(=O)[C@@H]2CSSC[C@@H](C(=O)N[C@@H](CO)C(=O)O)NC(=O)CNC(=O)[C@H](CC(C)C)NC(=O)[C@H](CC(N)=O)NC(=O)[C@H](CC(=O)O)NC(=O)[C@H](CC(C)C)NC(=O)[C@H]([C@@H](C)CC)NC(=O)[C@H](CCC(=O)O)NC(=O)[C@H](CCC(=O)O)NC(=O)[C@H]([C@@H](C)CC)NC(=O)[C@H](CSSC[C@H](NC(=O)CCOCCOCCOCCOCCNC(=O)CCCC[C@@H]3SC[C@@H]4NC(=O)N[C@@H]43)C(=O)N[C@@H](CCC(=O)O)C(=O)N[C@@H](Cc3ccc(O)cc3)C(=O)N[C@@H](CC(=O)O)C(=O)N[C@@H](CCC(=O)O)C(=O)N[C@@H](CCC(=O)O)C(=O)N[C@@H](Cc3ccccc3)C(=O)N[C@@H](Cc3ccccc3)C(=O)N[C@@H]([C@@H](C)O)C(=O)N[C@@H](C)C(=O)N[C@@H](CC(C)C)C(=O)N[C@@H](C)C(=O)N[C@@H](CCCNC(=N)N)C(=O)N[C@@H](CC(C)C)C(=O)N[C@@H](CCCNC(=N)N)C(=O)NCC(=O)NCC(=O)N[C@@H](CC(=O)O)C(=O)N[C@@H]([C@@H](C)CC)C(=O)N2)NC(=O)[C@H](CC(C)C)NC(=O)[C@H](C)NC(=O)[C@@H]2CCCN2C(=O)[C@H](CC(C)C)NC(=O)[C@H](Cc2ccc(O)cc2)NC(=O)[C@H](CCC(N)=O)NC(=O)[C@H](Cc2ccccc2)NC(=O)[C@H](CCCCNC)NC(=O)[C@H](C)NC(=O)[C@H](CCC(N)=O)NC1=O` [Compound C299], the “% Uptake of C306” value turned out to be 3%.

As a reminder, the half-life is how long it takes for the measured level to halve.

The values are drawn from patent US12427212B2, “Nectin-4 binding miniproteins, conjugates and uses thereof” (Aktis Oncology, Inc., priority 2023, dated 2025).
